# Laboratory results as given in article PMC5218480 (PLoS ONE, 2017).
# Test system: MV-4-11 cells
# Assay: Gene expression microarray analysis (Affymetrix PrimeView) and GSEA
# Assay type: cell-based, human
# Design: RFU PODN (11730768_x_at) / Fold change /veh PODN (11730768_x_at) / RFU LINC00158 (11744669_a_at) / Fold change /veh LINC00158 (11744669_a_at) / RFU DUSP10 (11751237_a_at) / Fold change /veh DUSP10 (11751237_a_at) / RFU ID3 (11757404_x_at) / Fold change /veh ID3 (11757404_x_at) / RFU PLEKHG5 (11737974_s_at) / Fold change /veh PLEKHG5 (11737974_s_at) / RFU LRRC4B (11730491_at) / Fold change /veh LRRC4B (11730491_at) / RFU GIMAP4 (11747438_a_at) / Fold change /veh GIMAP4 (11747438_a_at) / RFU KRT8 (11758183_x_at) / Fold change /veh KRT8 (11758183_x_at) / RFU CNN1 (11734310_a_at) / Fold change /veh CNN1 (11734310_a_at) / RFU VPS37D (11726825_at) / Fold change /veh VPS37D (11726825_at) / RFU C10orf10 (11716522_x_at) / Fold change /veh C10orf10 (11716522_x_at) / RFU KIR2DL2 /// KIR2DL4 /// KIR2DL5A /// KIR2DL5B /// KIR2DS1 /// KIR2DS2 /// KIR2DS3 /// KIR2DS4 /// KIR3DL3 /// KIR3DL3 /// KIR3DS1 (11738374_at) / Fold change /veh KIR2DL2 /// KIR2DL4 /// KIR2DL5A /// KIR2DL5B /// KIR2DS1 /// KIR2DS2 /// KIR2DS3 /// KIR2DS4 /// KIR3DL3 /// KIR3DL3 /// KIR3DS1 (11738374_at) / RFU C1QL1 (11718748_at) / Fold change /veh C1QL1 (11718748_at) / RFU TMPRSS4 (11747572_a_at) / Fold change /veh TMPRSS4 (11747572_a_at) / RFU HAMP (11756126_x_at) / Fold change /veh HAMP (11756126_x_at) / RFU RNFT2 (11725882_a_at) / Fold change /veh RNFT2 (11725882_a_at) / RFU NR4A2 (11747474_a_at) / Fold change /veh NR4A2 (11747474_a_at) / RFU ABCC12 (11746883_a_at) / Fold change /veh ABCC12 (11746883_a_at) / RFU TMEM136 (11760407_x_at) / Fold change /veh TMEM136 (11760407_x_at) / RFU CLDN22 /// WWC2 (11732394_at) / Fold change /veh CLDN22 /// WWC2 (11732394_at) / RFU HLA-DPB1 (11760878_x_at) / Fold change /veh HLA-DPB1 (11760878_x_at) / RFU SPINT1 (11716480_a_at) / Fold change /veh SPINT1 (11716480_a_at) / RFU GAP43 (11754022_s_at) / Fold change /veh GAP43 (11754022_s_at) / RFU A4GNT (11735810_at) / Fold change /veh A4GNT (11735810_at) / RFU PRB3 (11715151_x_at) / Fold change /veh PRB3 (11715151_x_at) / RFU TUBB4B (11761932_at) / Fold change /veh TUBB4B (11761932_at) / RFU CAPN14 (11732068_a_at) / Fold change /veh CAPN14 (11732068_a_at) / RFU TMCC2 (11721928_a_at) / Fold change /veh TMCC2 (11721928_a_at) / RFU IRGQ (11745062_a_at) / Fold change /veh IRGQ (11745062_a_at) / RFU FAM174B (11720279_a_at) / Fold change /veh FAM174B (11720279_a_at) / RFU TMPRSS4 (11748680_a_at) / Fold change /veh TMPRSS4 (11748680_a_at) / RFU FAM212B (11763350_a_at) / Fold change /veh FAM212B (11763350_a_at) / RFU PLEKHG5 (11743358_a_at) / Fold change /veh PLEKHG5 (11743358_a_at) / RFU ZSCAN30 (11745921_a_at) / Fold change /veh ZSCAN30 (11745921_a_at) / RFU CMKLR1 (11741424_a_at) / Fold change /veh CMKLR1 (11741424_a_at) / RFU LOC101060620 /// MAPK8IP1 (11723275_at) / Fold change /veh LOC101060620 /// MAPK8IP1 (11723275_at) / RFU SPTSSB (11747773_x_at) / Fold change /veh SPTSSB (11747773_x_at) / RFU PRSS12 (11739890_at) / Fold change /veh PRSS12 (11739890_at) / RFU BIN1 (11741810_x_at) / Fold change /veh BIN1 (11741810_x_at) / RFU WNT11 (11732464_a_at) / Fold change /veh WNT11 (11732464_a_at) / RFU C10orf10 (11716521_a_at) / Fold change /veh C10orf10 (11716521_a_at) / RFU C5orf56 (11738089_at) / Fold change /veh C5orf56 (11738089_at) / RFU CYB561 (11721691_x_at) / Fold change /veh CYB561 (11721691_x_at) / RFU ANKRD19P (11752326_a_at) / Fold change /veh ANKRD19P (11752326_a_at) / RFU OR2T12 /// OR2T33 /// OR2T8 (11738714_s_at) / Fold change /veh OR2T12 /// OR2T33 /// OR2T8 (11738714_s_at) / RFU VCAN (11748164_a_at) / Fold change /veh VCAN (11748164_a_at) / RFU JSRP1 (11732532_at) / Fold change /veh JSRP1 (11732532_at) / RFU KRTAP10-11 (11738290_x_at) / Fold change /veh KRTAP10-11 (11738290_x_at) / RFU MYO3A (11730013_a_at) / Fold change /veh MYO3A (11730013_a_at) / RFU EBF3 (11725865_a_at) / Fold change /veh EBF3 (11725865_a_at) / RFU CAMK2N1 (11719241_x_at) / Fold change /veh CAMK2N1 (11719241_x_at) / RFU C5orf56 (11738088_a_at) / Fold change /veh C5orf56 (11738088_a_at) / RFU OLFML3 (11715873_a_at) / Fold change /veh OLFML3 (11715873_a_at) / RFU LOC100653217 /// NTM (11731650_a_at) / Fold change /veh LOC100653217 /// NTM (11731650_a_at) / RFU MAPK11 (11762145_a_at) / Fold change /veh MAPK11 (11762145_a_at) / RFU FIZ1 (11724087_x_at) / Fold change /veh FIZ1 (11724087_x_at) / RFU OASL (11726364_x_at) / Fold change /veh OASL (11726364_x_at) / RFU SOX15 (11748057_x_at) / Fold change /veh SOX15 (11748057_x_at) / RFU CD79A (11719716_a_at) / Fold change /veh CD79A (11719716_a_at) / RFU HIST1H1D (11736915_at) / Fold change /veh HIST1H1D (11736915_at) / RFU CASKIN2 (11723855_a_at) / Fold change /veh CASKIN2 (11723855_a_at) / RFU LOC730098 (11760151_x_at) / Fold change /veh LOC730098 (11760151_x_at) / RFU OR4N2 (11742367_at) / Fold change /veh OR4N2 (11742367_at) / RFU PRRT2 (11749266_a_at) / Fold change /veh PRRT2 (11749266_a_at) / RFU SNX32 (11753110_a_at) / Fold change /veh SNX32 (11753110_a_at) / RFU CDHR5 (11726645_a_at) / Fold change /veh CDHR5 (11726645_a_at) / RFU RCAN1 (11760418_a_at) / Fold change /veh RCAN1 (11760418_a_at) / RFU FAM167A (11723789_a_at) / Fold change /veh FAM167A (11723789_a_at) / RFU FAM26E (11764081_at) / Fold change /veh FAM26E (11764081_at) / RFU ISYNA1 (11749810_s_at) / Fold change /veh ISYNA1 (11749810_s_at) / RFU ACY1 (11761880_at) / Fold change /veh ACY1 (11761880_at) / RFU 11764098_at / Fold change /veh 11764098_at / RFU SAMD14 (11745864_x_at) / Fold change /veh SAMD14 (11745864_x_at) / RFU NPB (11741838_a_at) / Fold change /veh NPB (11741838_a_at) / RFU TMPRSS6 (11731388_a_at) / Fold change /veh TMPRSS6 (11731388_a_at) / RFU KRTAP10-2 (11738614_at) / Fold change /veh KRTAP10-2 (11738614_at) / RFU ARHGAP8 /// PRR5-ARHGAP8 (11727945_x_at) / Fold change /veh ARHGAP8 /// PRR5-ARHGAP8 (11727945_x_at) / RFU KRTAP5-7 /// NADSYN1 (11734609_at) / Fold change /veh KRTAP5-7 /// NADSYN1 (11734609_at) / RFU RASL12 (11751679_a_at) / Fold change /veh RASL12 (11751679_a_at) / RFU CDKN2B (11736163_a_at) / Fold change /veh CDKN2B (11736163_a_at) / RFU PRF1 (11729649_at) / Fold change /veh PRF1 (11729649_at) / RFU, ZNF638 /// ZNF638-IT1 / Fold change vs veh, ZNF638 /// ZNF638-IT1 / RFU, PANK3 / Fold change vs veh, PANK3 / RFU, SH3YL1 / Fold change vs veh, SH3YL1 / RFU, ZEB2 / Fold change vs veh, ZEB2 / RFU, NRIP1 / Fold change vs veh, NRIP1 / RFU, PTTG1IP / Fold change vs veh, PTTG1IP / RFU, CAPN2 / Fold change vs veh, CAPN2 / RFU, MED14 / Fold change vs veh, MED14 / RFU, SNORA58 / Fold change vs veh, SNORA58 / RFU, C1orf63 / Fold change vs veh, C1orf63 / RFU, LRRFIP1 / Fold change vs veh, LRRFIP1 / RFU, NDUFAF7 / Fold change vs veh, NDUFAF7 / RFU, SLC12A2 / Fold change vs veh, SLC12A2 / RFU, IBTK / Fold change vs veh, IBTK / RFU, ESF1 / Fold change vs veh, ESF1 / Fold change vs veh, TMEM50B / RFU, TAOK1 / Fold change vs veh, TAOK1 / RFU, ACBD3 / Fold change vs veh, ACBD3 / RFU, TMA16 / Fold change vs veh, TMA16 / RFU, RWDD3 / Fold change vs veh, RWDD3 / RFU, BCAT1 / Fold change vs veh, BCAT1 / RFU, EDEM3 / Fold change vs veh, EDEM3 / RFU, TMEM33 / Fold change vs veh, TMEM33 / RFU, WDR75 / Fold change vs veh, WDR75 / RFU, AHCTF1 / Fold change vs veh, AHCTF1 / RFU, TFRC / Fold change vs veh, TFRC / RFU, ZDHHC17 / Fold change vs veh, ZDHHC17 / RFU, NOM1 / Fold change vs veh, NOM1 / RFU, ARL8B / Fold change vs veh, ARL8B / RFU, ZBTB11 / Fold change vs veh, ZBTB11 / RFU, TAMM41 / Fold change vs veh, TAMM41 / RFU, KIAA1704 /// LOC100996395 / Fold change vs veh, KIAA1704 /// LOC100996395 / RFU, ING1 / Fold change vs veh, ING1 / RFU, TRMT61B / Fold change vs veh, TRMT61B / RFU, FUBP3 / Fold change vs veh, FUBP3 / RFU, TP53 / Fold change vs veh, TP53 / RFU, TNKS2 / Fold change vs veh, TNKS2 / RFU, ZFP14 / Fold change vs veh, ZFP14 / RFU, ACTR2 / Fold change vs veh, ACTR2 / RFU, PPP3R1 / Fold change vs veh, PPP3R1 / RFU, PIK3R1 / Fold change vs veh, PIK3R1 / RFU, HNRNPA1 / Fold change vs veh, HNRNPA1 / RFU, RNF170 / Fold change vs veh, RNF170 / RFU, ZNF28 / Fold change vs veh, ZNF28 / RFU, RNGTT / Fold change vs veh, RNGTT / RFU, OGT / Fold change vs veh, OGT / RFU, BRD1 / Fold change vs veh, BRD1 / RFU, MARS / Fold change vs veh, MARS / RFU, ZNF655 / Fold change vs veh, ZNF655 / RFU, FAHD1 / Fold change vs veh, FAHD1 / RFU, BDP1 / Fold change vs veh, BDP1 / RFU, LRRCC1 / Fold change vs veh, LRRCC1 / RFU, ARID1A / Fold change vs veh, ARID1A / RFU, ZNF146 / Fold change vs veh, ZNF146 / RFU, ZNF330 / Fold change vs veh, ZNF330 / RFU, GPN3 / Fold change vs veh, GPN3 / RFU, C9orf123 / Fold change vs veh, C9orf123 / RFU, N4BP2L2 / Fold change vs veh, N4BP2L2 / RFU, ARFIP1 / Fold change vs veh, ARFIP1 / RFU, FAM179B / Fold change vs veh, FAM179B / RFU, BCL10 / Fold change vs veh, BCL10 / RFU, UHRF1BP1L / Fold change vs veh, UHRF1BP1L / RFU, BET1 / Fold change vs veh, BET1 / RFU, CNOT2 / Fold change vs veh, CNOT2 / RFU, ZNF268 / Fold change vs veh, ZNF268 / Fold change vs veh, ZNF507 / RFU, DGCR2 / Fold change vs veh, DGCR2 / RFU, WDSUB1 / Fold change vs veh, WDSUB1 / Fold change vs veh, HSP90B1 /// MIR3652 / RFU, ADSS / Fold change vs veh, ADSS / RFU, GK / Fold change vs veh, GK / RFU, ZNF148 / Fold change vs veh, ZNF148 / RFU, TAF9 / Fold change vs veh, TAF9 / RFU, SLC1A5 / Fold change vs veh, SLC1A5 / RFU, SLMO2 / Fold change vs veh, SLMO2 / RFU, ABCC4 / Fold change vs veh, ABCC4 / RFU, LOC101060439 /// RAP1B / Fold change vs veh, LOC101060439 /// RAP1B / RFU, RFX7 / Fold change vs veh, RFX7 / RFU, GTPBP10 / Fold change vs veh, GTPBP10 / RFU, CNEP1R1 / Fold change vs veh, CNEP1R1 / RFU, BIVM-ERCC5 /// ERCC5 / Fold change vs veh, BIVM-ERCC5 /// ERCC5 / RFU, ILF3 / Fold change vs veh, ILF3 / RFU 11762660_at / Fold change /veh 11762660_at / RFU VCAN (11757783_s_at) / Fold change /veh VCAN (11757783_s_at) / RFU DDX43 (11728927_at) / Fold change /veh DDX43 (11728927_at) / RFU KRT8 (11758188_x_at) / Fold change /veh KRT8 (11758188_x_at) / RFU NKD1 (11759106_at) / Fold change /veh NKD1 (11759106_at) / RFU SRD5A1 (11742802_a_at) / Fold change /veh SRD5A1 (11742802_a_at) / RFU TPSAB1 /// TPSB2 (11721975_s_at) / Fold change /veh TPSAB1 /// TPSB2 (11721975_s_at) / RFU GSTM3 (11746129_a_at) / Fold change /veh GSTM3 (11746129_a_at) / RFU IL23R (11737362_x_at) / Fold change /veh IL23R (11737362_x_at) / RFU TMEM51 (11727254_a_at) / Fold change /veh TMEM51 (11727254_a_at) / RFU PIWIL2 (11732686_x_at) / Fold change /veh PIWIL2 (11732686_x_at) / RFU ORM1 (11744905_x_at) / Fold change /veh ORM1 (11744905_x_at) / RFU CCDC152 (11743942_at) / Fold change /veh CCDC152 (11743942_at) / RFU ECM1 (11717891_a_at) / Fold change /veh ECM1 (11717891_a_at) / RFU IL23R (11748794_a_at) / Fold change /veh IL23R (11748794_a_at) / RFU TNFAIP8L3 (11732012_x_at) / Fold change /veh TNFAIP8L3 (11732012_x_at) / RFU MBOAT4 (11741988_at) / Fold change /veh MBOAT4 (11741988_at) / RFU 11764193_at / Fold change /veh 11764193_at / RFU TMEM53 (11763286_at) / Fold change /veh TMEM53 (11763286_at) / RFU MAGEB2 (11727129_at) / Fold change /veh MAGEB2 (11727129_at) / RFU TMEM200A (11744735_a_at) / Fold change /veh TMEM200A (11744735_a_at) / RFU CCDC152 (11751479_a_at) / Fold change /veh CCDC152 (11751479_a_at) / RFU FAM211A (11726209_a_at) / Fold change /veh FAM211A (11726209_a_at) / RFU RGS16 (11746705_a_at) / Fold change /veh RGS16 (11746705_a_at) / RFU VCAN (11755009_s_at) / Fold change /veh VCAN (11755009_s_at) / RFU RHOB (11743442_s_at) / Fold change /veh RHOB (11743442_s_at) / RFU RGS16 (11720943_a_at) / Fold change /veh RGS16 (11720943_a_at) / RFU RGS16 (11720944_at) / Fold change /veh RGS16 (11720944_at) / RFU, VPS4B / Fold change vs veh, VPS4B / RFU, CREB1 / Fold change vs veh, CREB1 / RFU, DNAJC13 / Fold change vs veh, DNAJC13 / RFU, GNAQ / Fold change vs veh, GNAQ / RFU, CDK5R1 / Fold change vs veh, CDK5R1 / RFU, ZRANB3 / Fold change vs veh, ZRANB3 / RFU, CUL4A / Fold change vs veh, CUL4A / RFU, CCNY / Fold change vs veh, CCNY / RFU, UFL1 / Fold change vs veh, UFL1 / RFU, COG3 / Fold change vs veh, COG3 / RFU, DIAPH2 / Fold change vs veh, DIAPH2 / RFU, SKA2 / Fold change vs veh, SKA2 / RFU, AFF3 / Fold change vs veh, AFF3 / RFU, LMF1 / Fold change vs veh, LMF1 / RFU, IPO11 / Fold change vs veh, IPO11 / RFU, DFFB / Fold change vs veh, DFFB / RFU, FOXP1 / Fold change vs veh, FOXP1 / RFU, CARD8 / Fold change vs veh, CARD8 / RFU, STRN3 / Fold change vs veh, STRN3 / RFU, ADK / Fold change vs veh, ADK / RFU, RASSF2 / Fold change vs veh, RASSF2 / RFU, WIPF1 / Fold change vs veh, WIPF1 / RFU, LARP1B / Fold change vs veh, LARP1B / RFU, RASA1 / Fold change vs veh, RASA1 / RFU, RB1 / Fold change vs veh, RB1 / RFU, PPFIA1 / Fold change vs veh, PPFIA1 / RFU, MAT2A / Fold change vs veh, MAT2A / RFU, CCT5 / Fold change vs veh, CCT5 / RFU, WDR92 / Fold change vs veh, WDR92 / RFU, CUX1 / Fold change vs veh, CUX1 / RFU, TTC7A / Fold change vs veh, TTC7A / RFU, TMEM135 / Fold change vs veh, TMEM135 / RFU, DEPTOR / Fold change vs veh, DEPTOR / RFU, CPM / Fold change vs veh, CPM / RFU, DNAJB6 / Fold change vs veh, DNAJB6 / RFU, CACNA2D3 / Fold change vs veh, CACNA2D3 / RFU, DTX4 / Fold change vs veh, DTX4 / RFU, TFCP2 / Fold change vs veh, TFCP2 / RFU, GMCL1 /// GMCL1P1 / Fold change vs veh, GMCL1 /// GMCL1P1 / RFU, AEBP2 / Fold change vs veh, AEBP2 / RFU, SNHG1 /// SNORD22 /// SNORD25 /// SNORD26 /// SNORD27 /// SNORD28 /// SNORD29 /// SNORD31 / Fold change vs veh, SNHG1 /// SNORD22 /// SNORD25 /// SNORD26 /// SNORD27 /// SNORD28 /// SNORD29 /// SNORD31 / Fold change (Aza/veh), C12orf56 (ProbeSet 11735607_a_at) / Fold change (ACY-1035/veh), C12orf56 (ProbeSet 11735607_a_at) / Fold change (Aza/veh), FGFR1OP (ProbeSet 11751329_s_at) / Fold change (ACY-1035/veh), FGFR1OP (ProbeSet 11751329_s_at) / Fold change (Aza/veh), VPS36 (ProbeSet 11739960_a_at) / Fold change (ACY-1035/veh), VPS36 (ProbeSet 11739960_a_at) / RFU SYPL1 (11715823_x_at) / Fold change /veh SYPL1 (11715823_x_at) / RFU IGFBP7 (11715501_s_at) / Fold change /veh IGFBP7 (11715501_s_at) / RFU REEP3 (11722064_at) / Fold change /veh REEP3 (11722064_at) / RFU IGLL1 (11728026_x_at) / Fold change /veh IGLL1 (11728026_x_at): dose or concentration left out as unconfirmed
# Settings: ProbeSet 11722302_a_at; LIST B
smiles,measurement,value
Nc1ncn([C@@H]2O[C@H](CO)[C@@H](O)[C@H]2O)c(=O)n1 [azacitidine],"Fold change vs veh, LRRFIP1",0.89
